Literature values in patent US7160060B1, “System and method of remediation of contaminants” (priority 2004, dated 2007).

details: select chlorinated organics (Table 1)

| Compound | SOLUBILITY IN WATER at 25° C. |
| --- | --- |
| ClC(Cl)=C(Cl)Cl [Perchloroethylene] | 150 mg/L |
| ClC=C(Cl)Cl [Trichloroethylene] | 1,280 mg/L |
| C=CCl [Vinyl Chloride] | 8,800 mg/L |

same assay, conditions: select polycyclic aromatic hydrocarbons (Table 3)

| Compound | SOLUBILITY IN WATER at 25° C. |
| --- | --- |
| c1ccc2c(c1)cc1ccc3cccc4ccc2c1c34 [Benzo(a)pyrene] | 0.0016 mg/L |
| c1ccc2cc3ccccc3cc2c1 [Anthracene] | 0.075 mg/L |
| c1cc2ccc3ccc4ccc5cccc6c(c1)c2c3c4c56 [Benzo(g,h,i)perylene] | 0.00026 mg/L |
| c1ccc2c(c1)ccc1cc3c(ccc4ccccc43)cc12 [Dibenz(a,h)anthracene] | 0.0006 mg/L |
| c1ccc2c(c1)ccc1ccccc12 [Phenanthrene] | 1.18 mg/L |
| c1ccc2c(c1)ccc1c3ccccc3ccc21 [Chrysene] | 0.00189 mg/L |

same assay, conditions: select volatile organic chemicals (BTEX) (Table 2)

| SOLUBILITY IN WATER at 25° C. | Compound |
| --- | --- |
| 198 mg/L | Cc1ccc(C)cc1 [p-xylene isomer, p-xylene] |
